Test results: patent US20240140895A1, “NOVEL AROMATIC MOLECULES” (XENIOPRO GmbH, priority 2018, published 2024)

Tested on: CAL-27 cells (human tongue squamous cell carcinoma cells)
Assay: Proliferation assay (alamarBlue) with CAL-27 cells
Assay type: cell-based
Settings: read-out: Activity Range: weighted arithmetic mean (AVEw) of normalized fluorescence intensity relative to DMSO basis level 1.0
Description: (§1) The antiproliferative activities of compounds falling under formula (Ia), (Tb) and (Ic), respectively, were investigated on cells or cell lines originating from a disorder of the haematopoietic system, including the myeloid cell compartment and the lymphoid cell compartment (T-cells and B-cells), the neuroendocrine system, the cervix, the breast, the ovaries, the lung, the gastrointestinal tract, and the mucosal epithelium, as well as from the skin epithelium and from the muscle. To this end, HL-60 cells, NB-4 cells, HH cells, RPMI-8402 cells, TANOUE cells, TT cells, HeLa cells, MDA-MB-231 cells, FU-OV-1 cells, LOU-NH91 cells, 23132/87 cells, CAL-27 cells, BHY cells, SCC-25 cells, A-431 cells, human primary epidermal keratinocytes (HPEK), and C2C12 cells were seeded into 96-well plates suitable for fluorescence assays (CORNING #3598) at following initial cell numbers: 1000 cells per well for HL-60; 1000 cells per well for NB-4; 5000 cells per well for HH; 5000 cells per well for RPMI-8402; 1500 cells per well for TANOUE; 9000 cells per well for TT; 2000 cells per well for HeLa; 3000 cells per well for MDA-MB-231; 3000 cells per well for FU-OV-1; 4000 cells per well for LOU-NH91; 2000 cells per well for 23132/87; 2000 cells per well for CAL-27; 1500 cells per well for BHY; 1500 cells per well for SCC-25; 700 cells per well for A-431; 1000 cells per well for HPEK; 500 cells per well for C2-C12. The cells were treated with compounds at indicated final concentrations (diluted from the 1000× stock-solutions in DMSO to a final DMSO concentration of 0.1% v/v in H2O (Water For Injection, WFI, Fisherscientific #10378939)) or with the empty carrier DMSO at 0.1% v/v as control for 5 days. At day 5 after starting the treatments the cells were subjected to the alamarBlue® Proliferation Assay (Bio-Rad Serotec GmbH, BUF012B) according to the protocol of the manufacturer. The readout was taken with a multi-well plate-reader in the fluorescence mode with applying a filter for excitation at 560 nm (band width 10 nm) and for emission at 590 nm (band width 10 nm). Control treatments for growth inhibition with commercial compounds such as Methotrexate (MTREX) and Resveratrol (RES) were included on every plate. Some of the test compounds of the present invention were obtained and applied as their salts. According cases are indicated in the column “Specification” in Table 30 to Table 62 and by their sum formula in Table 63.
(§2) The assays were performed in duplicate or more replicates of independent single experiments each containing a six-fold replicate for every condition. For every individual plate, the measured fluorescence intensity values of the conditions with compound treatment were normalized against the corresponding equally weighted arithmetic mean of the fluorescence intensity values of the six DMSO treated control wells in order to obtain the relative values to a baseline level of 1.0.
(§3) Two independent outlier analyses were performed according to the methods by Peirce and Chauvenet (Ross, Journal of Engineering Technology 2003, 1-12). Outliers confirmed by at least one of the methods were excluded from the calculations but not more than one value out of six per compound within a single experiment. The weighted arithmetic mean (here abbreviated as AVEw) for each compound was calculated from the normalized values over all independent replicates of the single experiments comprising the six replicates each. The corresponding standard deviation for the weighted arithmetic mean was calculated according to the method described by Bronstein et al. (Bronstein, Semendjajew, Musiol, Muhlig, Taschenbuch der Mathematik, 5th edition 2001 (German), publisher: Verlag Harri Deutsch, Frankfurt am Main and Thun) and was combined with the Gauβ′ error propagation associated with the performed calculation for the normalization. The resulting standard deviation is herein referred to as “combined standard deviation”. […]

| SMILES | activity at 20 µM [%] |
| --- | --- |
| COC1(c2ccc(Oc3ccc(C4CCCCC4)cc3)cc2)COC1 [XPA-0146, 3-(4-(4-cyclohexylphenoxy)phenyl)-3-methoxyoxetane] | 20 to 40 |
| COC1(c2ccc(Oc3ccc(C45CC6CC(CC(C6)C4)C5)cc3)cc2)CN(C)C1 [XPA-0238, 3-(4-(4-((3r,5r,7r)-adamantan-1-yl)phenoxy)phenyl)-3-methoxy-1-methylazetidine] | 0 to 20 |

Tested on: HPEKp cells (human epidermal keratinocyte progenitors, pooled)
Assay: Proliferation assay (alamarBlue) with HPEKp cells
Assay type: cell-based
Settings: compound at 10 μM, read-out: Activity Range: weighted arithmetic mean (AVEw) of normalized fluorescence intensity, relative to DMSO basis level 1.0
Description: as §1, §2, §3

| SMILES | activity at 10 µM [%] |
| --- | --- |
| COC1(c2ccc(Oc3ccc(C4CCCCC4)cc3)cc2)COC1 [XPA-0146, 3-(4-(4-cyclohexylphenoxy)phenyl)-3-methoxyoxetane] | 60 to 70 |
| COC1(c2ccc(Oc3ccc(C45CC6CC(CC(C6)C4)C5)cc3)cc2)CN(C)C1 [XPA-0238, 3-(4-(4-((3r,5r,7r)-adamantan-1-yl)phenoxy)phenyl)-3-methoxy-1-methylazetidine] | 40 to 60 |

Tested on: NB-4 cells (human acute promyelocytic leukemia cells)
Assay: Proliferation assay (alamarBlue) with NB-4 cells
Assay type: cell-based
Settings: Homo sapiens, Table 32, compound at 20 μM, read-out: Activity Range (AVEw, weighted arithmetic mean of normalized fluorescence intensity, DMSO = 1.0)
Description: as §1, §2, §3

| SMILES | activity at 20 µM [%] |
| --- | --- |
| COC1(c2ccc(Oc3ccc(C4CCCCC4)cc3)cc2)COC1 [XPA-0146, 3-(4-(4-cyclohexylphenoxy)phenyl)-3-methoxyoxetane] | 80 to 90 |
| COC1(c2ccc(Oc3ccc(C45CC6CC(CC(C6)C4)C5)cc3)cc2)CN(C)C1 [XPA-0238, 3-(4-(4-((3r,5r,7r)-adamantan-1-yl)phenoxy)phenyl)-3-methoxy-1-methylazetidine] | 0 to 20 |

Tested on: TANOUE cells (human B cell leukemia cells)
Assay: Proliferation assay (alamarBlue) with TANOUE cells
Assay type: cell-based
Settings: Homo sapiens, B-cell, read-out: Activity Range: weighted arithmetic mean (AVEw) of normalized fluorescence intensity relative to DMSO basis level 1.0
Description: as §1, §2, §3

| SMILES | activity at 20 µM [%] |
| --- | --- |
| COC1(c2ccc(Oc3ccc(C4CCCCC4)cc3)cc2)COC1 [XPA-0146, 3-(4-(4-cyclohexylphenoxy)phenyl)-3-methoxyoxetane] | 0 to 20 |
| COC1(c2ccc(Oc3ccc(C45CC6CC(CC(C6)C4)C5)cc3)cc2)CN(C)C1 [XPA-0238, 3-(4-(4-((3r,5r,7r)-adamantan-1-yl)phenoxy)phenyl)-3-methoxy-1-methylazetidine] | 0 to 20 |

Tested on: BHY cells (human oral squamous cell carcinoma cells)
Assay: Proliferation assay (alamarBlue) with BHY cells
Assay type: cell-based
Settings: read-out: Activity Range: weighted arithmetic mean (AVEw) of normalized fluorescence intensity relative to DMSO basis level 1.0
Description: as §1, §2, §3

| SMILES | activity at 20 µM [%] |
| --- | --- |
| COC1(c2ccc(Oc3ccc(C4CCCCC4)cc3)cc2)COC1 [XPA-0146, 3-(4-(4-cyclohexylphenoxy)phenyl)-3-methoxyoxetane] | 70 to 80 |
| COC1(c2ccc(Oc3ccc(C45CC6CC(CC(C6)C4)C5)cc3)cc2)CN(C)C1 [XPA-0238, 3-(4-(4-((3r,5r,7r)-adamantan-1-yl)phenoxy)phenyl)-3-methoxy-1-methylazetidine] | 0 to 20 |

Tested on: HH cells (human cutaneous T-cell lymphoma cells)
Assay: Proliferation assay (alamarBlue) with HH cells
Assay type: cell-based
Settings: Table 34, compound at 20 μM, read-out: Activity Range (AVEw, weighted arithmetic mean of normalized fluorescence intensity, DMSO = 1.0)
Description: as §1, §2, §3

| SMILES | activity at 20 µM [%] |
| --- | --- |
| COC1(c2ccc(Oc3ccc(C45CC6CC(CC(C6)C4)C5)cc3)cc2)CN(C)C1 [XPA-0238, 3-(4-(4-((3r,5r,7r)-adamantan-1-yl)phenoxy)phenyl)-3-methoxy-1-methylazetidine] | 0 to 20 |

Tested on: 23132/87 cells (human gastric adenocarcinoma cells)
Assay: Proliferation assay (alamarBlue) with 23132/87 cells
Assay type: cell-based
Settings: read-out: Activity Range: weighted arithmetic mean (AVEw) of normalized fluorescence intensity relative to DMSO basis level 1.0
Description: as §1, §2, §3

| SMILES | activity at 20 µM [%] |
| --- | --- |
| COC1(c2ccc(Oc3ccc(C4CCCCC4)cc3)cc2)COC1 [XPA-0146, 3-(4-(4-cyclohexylphenoxy)phenyl)-3-methoxyoxetane] | 60 to 70 |
| COC1(c2ccc(Oc3ccc(C45CC6CC(CC(C6)C4)C5)cc3)cc2)CN(C)C1 [XPA-0238, 3-(4-(4-((3r,5r,7r)-adamantan-1-yl)phenoxy)phenyl)-3-methoxy-1-methylazetidine] | 0 to 20 |

Tested on: SCC-25 cells (human tongue squamous cell carcinoma cells)
Assay: Proliferation assay (alamarBlue) with SCC-25 cells
Assay type: cell-based
Settings: Homo sapiens, read-out: Activity Range: weighted arithmetic mean (AVEw) of normalized fluorescence intensity relative to DMSO basis level 1.0
Description: as §1, §2, §3

| SMILES | activity at 20 µM [%] |
| --- | --- |
| COC1(c2ccc(Oc3ccc(C45CC6CC(CC(C6)C4)C5)cc3)cc2)CN(C)C1 [XPA-0238, 3-(4-(4-((3r,5r,7r)-adamantan-1-yl)phenoxy)phenyl)-3-methoxy-1-methylazetidine] | 0 to 20 |

Tested on: HL-60 cells (human acute myeloid leukemia cells)
Assay: Proliferation assay (alamarBlue) with HL-60 cells
Assay type: cell-based
Settings: Homo sapiens, Table 30, compound at 20 μM, read-out: Activity Range (AVEw, weighted arithmetic mean of normalized fluorescence intensity, DMSO = 1.0)
Description: as §1, §2, §3

| SMILES | activity at 20 µM [%] |
| --- | --- |
| COC1(c2ccc(Oc3ccc(C4CCCCC4)cc3)cc2)COC1 [XPA-0146, 3-(4-(4-cyclohexylphenoxy)phenyl)-3-methoxyoxetane] | 20 to 40 |
| COC1(c2ccc(Oc3ccc(C45CC6CC(CC(C6)C4)C5)cc3)cc2)CN(C)C1 [XPA-0238, 3-(4-(4-((3r,5r,7r)-adamantan-1-yl)phenoxy)phenyl)-3-methoxy-1-methylazetidine] | 0 to 20 |

Tested on: C2C12 cells (murine myoblast cells)
Assay: Proliferation assay (alamarBlue) with C2C12 cells
Assay type: cell-based
Settings: Mus musculus, compound at 20 μM, read-out: Activity Range: weighted arithmetic mean (AVEw) of normalized fluorescence intensity, relative to DMSO basis level 1.0
Description: as §1, §2, §3

| SMILES | activity at 20 µM [%] |
| --- | --- |
| COC1(c2ccc(Oc3ccc(C45CC6CC(CC(C6)C4)C5)cc3)cc2)CN(C)C1 [XPA-0238, 3-(4-(4-((3r,5r,7r)-adamantan-1-yl)phenoxy)phenyl)-3-methoxy-1-methylazetidine] | 0 to 20 |

Tested on: MDA-MB-231 cells (human breast carcinoma cells)
Assay: Proliferation assay (alamarBlue) with MDA-MB-231 cells
Assay type: cell-based
Settings: Homo sapiens, read-out: Activity Range: weighted arithmetic mean (AVEw) of normalized fluorescence intensity relative to DMSO basis level 1.0
Description: as §1, §2, §3

| SMILES | activity at 20 µM [%] |
| --- | --- |
| COC1(c2ccc(Oc3ccc(C4CCCCC4)cc3)cc2)COC1 [XPA-0146, 3-(4-(4-cyclohexylphenoxy)phenyl)-3-methoxyoxetane] | 0 to 20 |
| COC1(c2ccc(Oc3ccc(C45CC6CC(CC(C6)C4)C5)cc3)cc2)CN(C)C1 [XPA-0238, 3-(4-(4-((3r,5r,7r)-adamantan-1-yl)phenoxy)phenyl)-3-methoxy-1-methylazetidine] | 0 to 20 |

Tested on: A-431 cells (human epidermoid squamous cell carcinoma cells)
Assay: Proliferation assay (alamarBlue) with A-431 cells
Assay type: cell-based
Settings: Homo sapiens, 20 μM, read-out: Activity Range: weighted arithmetic mean (AVEw) of normalized fluorescence intensity relative to DMSO basis level 1.0
Description: as §1, §2, §3

| SMILES | activity at 20 µM [%] |
| --- | --- |
| COC1(c2ccc(Oc3ccc(C4CCCCC4)cc3)cc2)COC1 [XPA-0146, 3-(4-(4-cyclohexylphenoxy)phenyl)-3-methoxyoxetane] | 20 to 40 |
| COC1(c2ccc(Oc3ccc(C45CC6CC(CC(C6)C4)C5)cc3)cc2)CN(C)C1 [XPA-0238, 3-(4-(4-((3r,5r,7r)-adamantan-1-yl)phenoxy)phenyl)-3-methoxy-1-methylazetidine] | 0 to 20 |

Tested on: RPMI-8402 cells (human T cell acute lymphoblastic leukemia cells)
Assay: Proliferation assay (alamarBlue) with RPMI-8402 cells
Assay type: cell-based
Settings: Homo sapiens, read-out: Activity Range: weighted arithmetic mean (AVEw) of normalized fluorescence intensity relative to DMSO basis level 1.0
Description: as §1, §2, §3

| SMILES | activity at 20 µM [%] |
| --- | --- |
| COC1(c2ccc(Oc3ccc(C4CCCCC4)cc3)cc2)COC1 [XPA-0146, 3-(4-(4-cyclohexylphenoxy)phenyl)-3-methoxyoxetane] | 20 to 40 |
| COC1(c2ccc(Oc3ccc(C45CC6CC(CC(C6)C4)C5)cc3)cc2)CN(C)C1 [XPA-0238, 3-(4-(4-((3r,5r,7r)-adamantan-1-yl)phenoxy)phenyl)-3-methoxy-1-methylazetidine] | 0 to 20 |
